According to US11001605B2, “Cyclic dinucleotides containing benzimidazole, method for the production of same, and use of same to activate stimulator of interferon genes (sting)-dependent signaling pathways” (BIOLOG LIFE SCIENCE INSTITUTE GmbH & Co. KG, priority 2016, dated 2021):

How the values were obtained:
[1] = Lipophilicity determination by gradient HPLC (log k′g); type: physicochemical; conditions: HPLC gradient 1, RP-18, triethylammonium phosphate buffer pH 6.5 / methanol (ion pair chromatography)
Method: Gradient 1: Stationary phase: Polygosil 60-10, RP-18; 250×4 mm (Macherey & Nagel, DOren, Germany). Mobile phase A: 10 ml 1 M triethylammonium phosphate buffer (TEAP), pH 6.5+990 ml methanol. Mobile phase B: 10 ml 1 M TEAP, pH 6.5+990 ml H2O. Time program: 0 min: 100% B; 60 min: 100% A; 65 min: 100% A; 70 min: 100% B; 90 min: 100% B. Flow rate: 1.0 ml/min.
The octanol/water coefficient Log P is the commonly accepted indicator for the expected property of a given chemical entity to pass cellular membranes by passive diffusion. However, its practical determination for polar compounds such as multiply charged nucleotides is difficult in reality. Often, the information about membrane permeability must be received by fragmental analysis or other calculations.
Given this fact, an established HPLC method is used here, which is based on the measurement of retention on a reversed phase column^7. In contrast to Log P, this method yields the indicator log k′g, which allows for a ranking of different nucleotides of the same charge according to their lipophilicity.
Since CDNs are twofold negatively charged molecules which are only very insufficiently retarded on a reversed phase HPLC column, the determinations were performed in presence of the lipophilic triethylammonium cation (ion pair chromatography).
According to the established method^7 HPLC gradient 1 was used for the determination of lipophilicity.

STING signalling pathway = test: Interferon-β promoter SEAP reporter assay in THP1-Blue cells; type: cell-based, human; conditions: 0, 10, 20, 40 μg/ml, 24 hours
Method: Legend for Synthesis 4: THP1-Blue™ cells ((THP1-ISG); InvivoGen, catalogue number: thp-isg; concentration: 5×10^5/ml, 180 μl/well (96-well-plate) were incubated with inventive CDNs in different concentrations (0 μg/ml; 10 μg/ml; 20 μg/ml; 40 μg/ml) in medium (RPMI-1640, 2 mM L-glutamine, 1.5 g/I sodium bicarbonate, 4.5 g/I glucose, 10 mM HEPES, 1 mM sodium pyruvate, 10% FCS, 100 μg/ml Zeocin™, 110 μg/ml Normocin™, Pen-Strep 50 U/ml) for 24 hours at 37° C. in 5% CO2. The quantification was performed with SEAP detection reagent QUANTI-Blue™ (InvivoGen; catalogue number: rep-qb1; incubation time: 30 min at 37° C. in 5% CO2) by optical density (OD) determination at 625 nm.
Legend for Synthesis 5: THP1-Blue™ cells ((THP1-ISG); InvivoGen, catalogue number: thp-isg; concentration: 5×10^5/ml, 180 μl/well (96-well-plate) and THP1 Dual™ KO STING cells ((STING KO) InvivoGen, catalogue number: thpd-kostg; concentration: 5×10^5/ml, 180 μl/well (96-well-plate) were incubated with inventive CDNs (concentration 40 μg/ml each) in medium (RPMI-1640, 2 mM L-glutamine, 1.5 g/I sodium bicarbonate, 4.5 g/I glucose, 10 mM HEPES, 1 mM sodium pyruvate, 10% FCS, 100 μg/mL Zeocin™, 110 μg/mL Normocin™, Pen-Strep 50 U/mL) for 24 hours at 37° C. in 5% CO2. For incubations with THP1 Dual™ KO STING cells, 10 μg/ml of blasticidin were added to the medium. Quantification was performed with SEAP detection reagent QUANTI-Blue™ (InvivoGen; catalogue number: rep-qb1; incubation time: 15 min at 37° C. in 5% CO2) by optical density (OD) determination at 625 nm.
Cell line: THP1-Blue™ cells (InvivoGen, catalogue number: thp-isg) are derived from THP1 cells. THP1-Blue™ cells in a cell culture dish are stimulated by the administration of a CDN according to the invention or a buffer control.
In these genetically modified cells, the gene for secreted embryonic alkaline phosphatase (SEAP) is under the control of an interferon-β promoter.
After stimulation of the cells with an inventive CDN, the supernatant of the cell culture was removed and the enzymatic activity of SEAP was measured photometrically in a colorimetric assay by measuring the extinction at 625 nm (optical density; OD 625 nm).
Administration of an inventive CDN induces an increase in the activity of SEAP, which is a measure of the activity of the STING signalling pathway.

[2] = system: STING-induced dimerisation and phosphorylation of IRF3, STING-induced phosphorylation of TBK1; test: STING-induced dimerisation and phosphorylation of IRF3 and phosphorylation of TBK1, Western Blot of THP-1 cell lysate; type: cell-based, human; conditions: THP-1 cells, native gel and SDS-PAGE Western Blot, versus buffer control
Method: Cell line: THP-1 cells (Sigma Cat. No. 88081201-1VL) were isolated from peripheral blood of a patient with acute leukaemia.
After application of an inventive CDN or a buffer control to THP1 cells in a culture dish a cell lysate is prepared, of which one part is applied to a native polyacrylamide gel and the other part to two denaturing polyacrylamide gels (SDS-PAGE). The developed gels are analysed with Western Blot technique.
In case of the native gel an IRF3 antibody is used.
The presence of an inventive CDN results in the formation of a second band, showing a running behaviour, which corresponds to the doubled molecular weight of IRF3. This band represents the dimer of IRF3, that has been formed under the influence of an inventive CDN.
In case of the two denaturing gels, either an antibody against phosphorylated IRF3 or an antibody against phosphorylated TBK1 is used. In the buffer control for each of the gels only a very weak band is detected. After application of an inventive CDN, the intensities of these bands are much more pronounced. This increase of intensity reflects the phosphorylation of IRF3 and of TBK1, respectively, induced by the inventive CDNs. Both, the dimerisation of IRF3 and the detected phosphorylations are a direct result of STING activation.

Nc1ncnc2c1ncn2[C@@H]1O[C@@H]2COP(=O)(S)OC3C(O)[C@@H](COP(=O)(S)OC2C1O)O[C@H]3n1cnc2ccccc21 (single isomer, unassigned) [Compound 98, MI2, Cyclic (adenosine-(3′→5′)-monophosphorothioate-benzimidazole riboside-(2′→5′)-monophosphorothioate)]
log k′g ([1]; listed as 98, MI2): 1.584

Nc1ncnc2c1ncn2[C@@H]1O[C@@H]2COP(=O)(O)OC3C(O)[C@H](n4cnc5cc(Cl)c(Cl)cc54)O[C@@H]3COP(=O)(O)OC2C1F (stereo partly shown) [Compound 81, cyclic (2′-fluoro-2′-deoxyadenosine-(3′ −> 5′)-monophosphate-5,6-dichlorobenzimidazole riboside-(3′ −> 5′)-monophosphate)]
log k′g [1]: 2.039
SEAP activity, elevated OD at 625 nm, concentration-dependent (STING signalling pathway): positive

Nc1nc2c(ncn2[C@@H]2O[C@@H]3COP(=O)(S)OC4C(O)[C@H](n5cnc6cc(Cl)c(Cl)cc65)O[C@@H]4COP(=O)(S)OC2C3O)c(=O)[nH]1 (single isomer, unassigned) [Compound 29, MI1, Cyclic (guanosine-(2′→5′)-monophosphorothioate-5,6-dichlorobenzimidazole riboside-(3′→5′)-monophosphorothioate)]
log k′g ([1]; listed as 29, MI1): 2.318

O=P1(S)OC[C@H]2O[C@@H](n3cnc4cc(Cl)c(Cl)cc43)C(O)C2OP(=O)(S)OC[C@H]2O[C@@H](n3cnc4cc(Cl)c(Cl)cc43)C(O1)C2O (stereo partly shown) [Compound 11, cyclic (5,6-dichlorobenzimidazole riboside-(2′ −> 5′)-monophosphorothioate-(5,6-dichlorobenzimidazole riboside-(3′ −> 5′)-monophosphorothioate)]
STING-induced dimerisation of IRF3, phosphorylation of IRF3 and phosphorylation of TBK1 [2]: positive

O=c1[nH]cnc2c1ncn2[C@@H]1O[C@@H]2COP(=O)(O)OC3C(O)[C@H](n4cnc5ccccc54)O[C@@H]3COP(=O)(O)OC2C1F (stereo partly shown) [Compound 85, cyclic (2′-fluoro-2′-deoxyinosine-(3′ −> 5′)-monophosphate-benzimidazole riboside-(3′ −> 5′)-monophosphate)]
log k′g [1]: 1.211

Nc1nc2c(ncn2[C@@H]2O[C@@H]3COP(=O)(O)O[C@H]4[C@@H](O)[C@H](n5cnc6c(N)ncnc65)O[C@@H]4COP(=O)(O)O[C@@H]2[C@@H]3O)c(=O)[nH]1 [2′,3′-cGAMP, reference compound]
log k′g [1]: 0.766

Nc1nc2c(ncn2[C@@H]2O[C@@H]3COP(=O)(O)O[C@H]4[C@@H](O)[C@H](n5cnc6c(=O)[nH]c(N)nc65)O[C@@H]4COP(=O)(O)O[C@H]3[C@H]2O)c(=O)[nH]1 [c-diGMP, reference compound]
log k′g [1]: 0.840

Nc1nc2c(ncn2[C@@H]2O[C@@H]3COP(=O)(S)OC4C(O)[C@H](n5cnc6cc(Cl)c(Cl)cc65)O[C@@H]4COP(=O)(S)OC2C3O)c(=O)[nH]1 (stereo partly shown) [Compound 29, cyclic (guanosine-(2′ −> 5′)-monophosphorothioate-5,6-dichlorobenzimidazole riboside-(3′ −> 5′)-monophosphorothioate)]
STING-induced dimerisation of IRF3, phosphorylation of IRF3 and phosphorylation of TBK1 [2]: positive

Nc1nc2c(ncn2[C@@H]2O[C@@H]3COP(=O)(S)OC4C(O)[C@H](n5cnc6ccccc65)O[C@@H]4COP(=O)(S)OC2C3O)c(=O)[nH]1 (single isomer, unassigned) [Compound 23, MI1, Cyclic (guanosine-(2′→5′)-monophosphorothioate-benzimidazole riboside-(3′→5′)-monophosphorothioate)]
log k′g ([1]; listed as 23, MI1): 1.509

O=P1(S)OC[C@H]2O[C@@H](n3cnc4ccccc43)C(O)C2OP(=O)(S)OC[C@H]2O[C@@H](n3cnc4ccccc43)C(O)C2O1 (stereo partly shown) [Compound 4, cyclic (benzimidazole riboside- (3′ −> 5′)-monophosphorothioate- benzimidazole riboside-(3′ −> 5′)- monophosphorothioate)]
STING-induced dimerisation of IRF3, phosphorylation of IRF3 and phosphorylation of TBK1 [2]: positive

Nc1nc2c(ncn2[C@@H]2O[C@@H]3COP(=O)(S)OC4C(O)[C@H](n5cnc6ccccc65)O[C@@H]4COP(=O)(S)OC2C3O)c(=O)[nH]1 (single isomer, unassigned) [Compound 23, MI2, Cyclic (guanosine-(2′→5′)-monophosphorothioate-benzimidazole riboside-(3′→5′)-monophosphorothioate)]
log k′g ([1]; listed as 23, MI2): 1.658
SEAP activity, elevated OD at 625 nm, concentration-dependent (STING signalling pathway): positive

O=P1(O)OC[C@H]2O[C@@H](n3cnc4ccccc43)C(O)C2OP(=O)(O)OC[C@H]2O[C@@H](n3cnc4ccccc43)C(O)C2O1 (stereo partly shown) [Compound 1, cyclic (benzimidazole riboside- (3′ −> 5′)-monophosphate- benzimidazole riboside-(3′ −> 5′)- monophosphate)]
log k′g [1]: 1.732

Nc1nc2c(ncn2[C@@H]2O[C@@H]3COP(=O)(S)OC4C(O)[C@@H](COP(=O)(S)OC2C3O)O[C@H]4n2cnc3cc(Cl)c(Cl)cc32)c(=O)[nH]1 (stereo partly shown) [Compound 30, cyclic (guanosine-(2′ −> 5′)-monophosphorothioate-5,6-dichlorobenzimidazole riboside-(2′ −> 5′)-monophosphorothioate)]
STING-induced dimerisation of IRF3, phosphorylation of IRF3 and phosphorylation of TBK1 [2]: positive

O=P1(O)OC[C@H]2O[C@@H](n3cnc4cc(Cl)c(Cl)cc43)C(O)C2OP(=O)(O)OC[C@H]2O[C@@H](n3cnc4cc(Cl)c(Cl)cc43)C(O)C2O1 (stereo partly shown) [Compound 7, cyclic (5,6-dichlorobenzimidazole riboside-(3′ −> 5′)-monophosphate-5,6-dichlorobenzimidazole riboside-(3′ −> 5′)-monophosphate)]
log k′g [1]: 2.970
